Measured values as given in patent US10414769B2, “5,8-dimethyl-9-phenyl-5,8-dihydro-6H-pyrazolo[3,4-h]quinazolin-2-yl)-(1H-pyrazol-3-yl)-amines as IGF-1R/IR inhibitors” (Boehringer Ingelheim International GmbH, priority 2015, dated 2019).

Tests used:
[1] = target: T1, MAPK8 (JNK1) (Homo sapiens, UniProt P45983); assay: Z'-LYTE kinase selectivity assay MAPK8; type: biochemical
T1 construct: purchased Life Technologies PV 3593
From the text: (§1) In order to compare the kinase selectivity of compounds (I) according to the invention with known prior art compounds the commercially provided SelectScreen® Kinase Profiling Service (Z′-LYTE®) was used (Life Technologies GmbH, Darmstadt, Germany) to investigate the ability of the compounds to inhibit a number of different, representatively selected human kinases. Further details regarding this service are available on the Life Technologies website at
(§2) The Z′-LYTE® biochemical assay employs a fluorescence-based, coupled-enzyme format and is based on the differential sensitivity of phosphorylated and non-phosphorylated peptides to proteolytic cleavage. The peptide substrate is labeled with two fluorophores—one at each end—that make up a FRET pair.
(§3) In the primary reaction, the kinase transfers the gamma-phosphate of ATP to a single tyrosine, serine or threonine residue in a synthetic FRET-peptide. In the secondary reaction, a site-specific protease recognizes and cleaves non-phosphorylated FRET-peptides. Phosphorylation of FRET-peptides suppresses cleavage by the Development Reagent. […] A ratiometric method, which calculates the ratio (the Emission Ratio) of donor emission to acceptor emission after excitation of the donor fluorophore at 400 nm, is used to quantitate reaction progress, as shown in the equation below. […]

[2] = target: T2, MAPK9 (JNK2) (Homo sapiens, UniProt P45984); assay: Z'-LYTE kinase selectivity assay MAPK9; type: biochemical
T2 construct: purchased Life Technologies PV 4018
From the text: as §1, §2, §3

T2 sequence (P45984 whole entry): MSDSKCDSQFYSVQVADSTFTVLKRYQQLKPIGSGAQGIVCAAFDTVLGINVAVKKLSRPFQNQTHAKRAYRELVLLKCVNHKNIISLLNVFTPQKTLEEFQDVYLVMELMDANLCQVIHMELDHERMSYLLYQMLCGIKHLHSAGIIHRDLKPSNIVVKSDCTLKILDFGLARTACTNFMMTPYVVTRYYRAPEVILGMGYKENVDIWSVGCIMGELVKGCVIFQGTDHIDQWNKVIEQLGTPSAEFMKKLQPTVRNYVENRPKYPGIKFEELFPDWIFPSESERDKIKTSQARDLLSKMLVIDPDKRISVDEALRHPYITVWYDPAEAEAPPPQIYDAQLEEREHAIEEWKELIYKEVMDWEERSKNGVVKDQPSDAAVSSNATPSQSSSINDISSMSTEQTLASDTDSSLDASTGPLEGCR
T1 sequence (P45983 whole entry): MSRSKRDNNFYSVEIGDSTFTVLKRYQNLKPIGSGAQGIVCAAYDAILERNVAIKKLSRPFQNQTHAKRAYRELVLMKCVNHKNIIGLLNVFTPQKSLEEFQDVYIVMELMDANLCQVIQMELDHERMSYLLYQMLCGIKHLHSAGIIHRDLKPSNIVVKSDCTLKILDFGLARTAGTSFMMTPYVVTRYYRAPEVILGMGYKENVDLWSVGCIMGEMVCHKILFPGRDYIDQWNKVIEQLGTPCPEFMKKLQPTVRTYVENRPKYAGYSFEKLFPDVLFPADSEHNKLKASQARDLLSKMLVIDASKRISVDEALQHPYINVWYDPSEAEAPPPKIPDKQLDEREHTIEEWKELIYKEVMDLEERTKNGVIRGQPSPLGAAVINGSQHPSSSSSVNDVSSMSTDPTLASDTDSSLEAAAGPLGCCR

SMILES: COCCN1CCN(CCn2ccc(Nc3ncc4c(n3)-c3c(nn(C)c3-c3ccccc3)C[C@H]4C)n2)CC1 [Compound I-11]
- inhibition at 1 µM [1]: 12%
- inhibition at 1 µM [2]: 7%
